The record followed here is patent US20100173832A1, “ANTICANCEROUS POLYMERIC AGENTS” (TECHNION RESEARCH & DEVELOPMENT FOUNDATION LTD., priority 2007, published 2010).

Like-named read-outs stand apart in the source and are kept apart here. Non-standard residues stand in square brackets, D forms with d. Residues, ends and D or L forms follow the SMILES beside them. *: point of attachment. Lauroyl = CCCCCCCCCCCC(=O)*; 12Ado = NCCCCCCCCCCCC(=O)O; Octanoyl = CCCCCCCC(=O)*

Series [1] has as its system ovarian carcinoma 2008 drug-sensitive cells. The series is described as follows: Cytotoxicity against drug-sensitive ovarian carcinoma 2008 cells. Particulars: read-out: LC50 against drug-sensitive 2008 cells.
The next series deals with MCF-7 cell line. Type of series: cell-based.
In a further series the test system is TRAMP-C2 cell line. Type of series: cell-based. From the text:
Transgenic adenocarcinoma mouse prostate cells (TRAMP-C2);
(§1) As a routine cancer cell killing assay for assessment of antitumor activity, 2,3-bis(2-methoxy-4-nitro-5-sulfophenyl)-2H-tetrazolium-5-carboxanilide inner salt (XTT) reduction assay was used, utilizing a commercial kit such as, for example, Cell Proliferation XTT Kit, Cat. No. 20-300-1000, Biological Industries Ltd., Kibbutz Beit Haemek, Israel. XTT is a tetrazolium salt which is cleaved to formazan colored compounds by the mitochondrial dehydrogenase enzymes indicating proper mitochondrial activity in intact cells.
(§2) Thereafter, a series of increasing concentrations of the polymers were added. After another 24 hours of incubation, XTT reaction solution was added (50 μl of XTT per 100 μl of cell culture medium). The optical density of the cells was measured at 450 nm by ELISA plate reader after 2-4 hours XTT incubation. Cell viability was determined relative to a control having no polymer added thereto.
“Mouse prostate cancer TRAMP-C2” represents the lethal concentration in μM as measured against TRAMP-C2 cell line, measured as described hereinabove in the cell proliferation XTT assay (column 5 in Table 3);

The next series deals with N-417 cell line. The series is described as follows: XTT cell viability assay, N-417 cells. The conditions noted are these: 24 hours incubation, XTT; read-out: Cancer LC50 Human small-cell lung carcinoma N-417. Type of series: cell-based.
Source text: Variant small cell lung cancer cells (N-417, SCLC);
as §1, §2
“Human breast cancer MCF-7” represents the lethal concentration in μM as measured against MCF-7 cell line, measured as described hereinabove in the cell proliferation XTT assay (column 6 in Table 3); “Human small-cell lung carcinoma N-417” represents the lethal concentration in μM as measured against N-417 cell line, measured as described hereinabove in the cell proliferation XTT assay (column 7 in Table 3);

The nature of series [2]: XTT cell viability assay, non-cancerous cardiac fibroblasts (CF). Type of series: cell-based, rat. The conditions noted are these: rat.
Source text: Primary non-cancerous rat cardiac fibroblasts (CF);
as §1, §2
“Rat primary cardiac fibroblast CF” represents the lethal concentration in μM as measured against CF cell line, measured as described hereinabove in the cell proliferation XTT assay (column 8 in Table 3);

The next series in a line: in vitro. The conditions noted are these: human, red blood cells. The method, then:
(§3) The polymer's toxic potential was determined against human red blood cells (RBC) by measuring leakage of hemoglobin therefrom in phosphate buffer solution (PBS). Human blood samples were rinsed three times in PBS by centrifugation for 2 minutes at 200×g, and re-suspended in PBS at 5% hematocrit. A 50 μl-fractions of a suspension containing […] RBC were added to test tubes containing 200 μl of polymer solutions (2-fold serial dilutions in PBS), PBS alone (for base-line values), or distilled water (for 100% hemolysis). […] Controls for base-line hemolysis (blank) and 100% hemolysis consisted of RBC suspended in PBS and TritonX100 (0.2%), respectively.

For series [3], the system named is human red blood cells (RBC). The series is described as follows: in vitro. The protocol: as §3
For series [4], the system named is drug-resistant 2008/MRP1 cells. The series is described as follows: Cytotoxicity against drug-resistant 2008/MRP1 cells. Particulars: read-out: LC50 against drug-resistant 2008/MRP1 cells; 1 day exposure (overnight), FIG. 10.
In series [5] the test system is drug-resistant 2008/MRP1 cells. The conditions noted are these: human, 3 day.
Setting [6] is: primary non-cancerous cardiac fibroblasts (CF), 24 hours incubation, XTT, non-cancerous cells, read-out: Cancer LC50 Rat primary cardiac fibroblast CF.
[7] abbreviates: 24 hours incubation, XTT, read-out: Cancer LC50 Human breast cancer MCF-7.
[8] abbreviates: 24 hours incubation, XTT, read-out: Cancer LC50 Mouse prostate cancer TRAMP-C2.
[9] abbreviates: LC50 against non-cancerous CF cells.

Description for MCF-7 cell line: Human breast adenocarcinoma cells (MCF-7);
Thereafter, a series of increasing concentrations of the polymers were added. […] The optical density of the cells was measured at 450 nm by ELISA plate reader after 2-4 hours XTT incubation. Cell viability was determined relative to a control having no polymer added thereto.

With `COc1cccc2c1C(=O)c1c(O)c3c(c(O)c1C2=O)C[C@@](O)(C(=O)CO)C[C@@H]3O[C@H]1C[C@H](N)[C@H](O)[C@H](C)O1` [doxorubicin, reference compound], in [1] (Homo sapiens, 72 h), the CC50 turned out to be 0.035 µM. For the same compound, in the series on MCF-7 cell line (human breast adenocarcinoma MCF-7 cells, XTT assay), the MCF-7 lethal concentration was determined as 3.3 ± 2 µM. The TRAMP-C2 lethal concentration in the series on TRAMP-C2 cell line (mouse prostate cancer TRAMP-C2 cells, XTT assay) amounted to 0.5 ± 0.5 µM.

As to `CCCCCCCCCCCC(=O)N[C@@H](CCCCN)C(=O)NCCCCCCCCCCCC(=O)N[C@@H](CCCCN)C(=O)N[C@@H](CCCCN)C(=O)NCCCCCCCCCCCC(=O)N[C@@H](CCCCN)C(=O)N[C@@H](CCCCN)C(=O)NCCCCCCCCCCCC(=O)N[C@@H](CCCCN)C(N)=O` (Lauroyl-K[12Ado]KK[12Ado]KK[12Ado]K-NH2), the CC50 in the series with N-417 cell line was less than 16 µM; in the series with MCF-7 cell line (setting [7]) it was 6 ± 1 µM; in the series on TRAMP-C2 cell line (setting [8]), 10 µM; in the series on TRAMP-C2 cell line (dose-dependent plot, FIG. 6a, read-out: LC50 towards TRAMP-C2 cells) it was 11 µM. In addition, the CC50 at 24 h in series [2] (setting [6]) is greater than 16 µM; in series [2] (primary non-cancerous cardiac fibroblasts (CF), dose-dependent plots, FIGS. 4a-b, 6a, read-out: LC50 against non-cancerous CF cells) it was 38 µM. In the series “in vitro”, this compound gave an HC50 at 3 h of 10 ± 0.1 µM.

For the compound `CCCCCCCCCCCC(=O)N[C@@H](CCCCN)C(=O)NCCCCCCCCCCCC(=O)N[C@@H](CCCCN)C(=O)N[C@@H](CCCCN)C(=O)NCCCCCCCCCCCC(=O)N[C@@H](CCCCN)C(N)=O` [C12(KNC12K)2NH2] (Lauroyl-K[12Ado]KK[12Ado]K-NH2), the CC50 in the series with N-417 cell line is 10 ± 1 µM; with MCF-7 cell line (human, 24 h) it was 11 µM; in the series on TRAMP-C2 cell line (setting [8]), greater than 16 µM. In addition, the CC50 at 24 h in series [2] (setting [9]) was 67 µM; in [2] (setting [6]), 67 ± 10 µM. Besides, the HC50 at 3 h in the series “in vitro” was 17 ± 6 µM.

Take `CCCCCCCC(=O)N[C@@H](CCCCN)C(=O)NCCCCCCCCCCCC(=O)N[C@@H](CCCCN)C(=O)N[C@@H](CCCCN)C(=O)NCCCCCCCCCCCC(=O)N[C@@H](CCCCN)C(=O)N[C@@H](CCCCN)C(=O)NCCCCCCCCCCCC(=O)N[C@@H](CCCCN)C(N)=O` [C8(KNC12K)3NH2] (Octanoyl-K[12Ado]KK[12Ado]KK[12Ado]K-NH2): the CC50 in the series on N-417 cell line worked out at 9 ± 1.4 µM; in the series with MCF-7 cell line (setting [7]), 8.7 ± 0.5 µM; with TRAMP-C2 cell line (setting [8]), 15 ± 0.7 µM. Further, the CC50 at 24 h in [2] (setting [6]) was 37 ± 1 µM. In addition, the HC50 at 3 h in the series “in vitro” was found to be 51 ± 6 µM.

`NCCCC[C@H](NC(=O)CCCCCCCCCCCNC(=O)[C@H](CCCCN)NC(=O)[C@H](CCCCN)NC(=O)CCCCCCCCCCCNC(=O)[C@H](CCCCN)NC(=O)[C@H](CCCCN)NC(=O)CCCCCCCCCCCNC(=O)[C@@H](N)CCCCN)C(N)=O` [(KNC12K)3NH2] (H-K[12Ado]KK[12Ado]KK[12Ado]K-NH2): the CC50 is greater than 16 µM with N-417 cell line; greater than 100 µM in series [3] (read-out: LC50 RBC (hemolytic concentration inducing lysis of 50% of human red blood cells), 3 hours incubation at 37° C., hemoglobin leakage assay); greater than 16 µM in the series with MCF-7 cell line (setting [7]); greater than 16 µM with TRAMP-C2 cell line (setting [8]). Further, the CC50 at 24 h in series [2] (setting [6]) was greater than 16 µM. The HC50 at 3 h in the series “in vitro” was greater than 100 µM.

For the compound `CCCCCCCC(=O)N[C@@H](CCCCN)C(=O)N[C@@H](CCCCN)C(=O)NCCCCCCCCCCCC(=O)N[C@@H](CCCCN)C(=O)N[C@@H](CCCCN)C(=O)NCCCCCCCCCCCC(=O)N[C@@H](CCCCN)C(=O)N[C@@H](CCCCN)C(=O)NCCCCCCCCCCCC(=O)N[C@@H](CCCCN)C(N)=O` [C8K(KNC12K)3NH2] (Octanoyl-KK[12Ado]KK[12Ado]KK[12Ado]K-NH2), the CC50 with N-417 cell line is 10 ± 0.4 µM; in the series with MCF-7 cell line (setting [7]) it was 5.7 ± 0.3 µM; in the series with MCF-7 cell line (dose-dependent plots, FIGS. 4a-b, read-out: LC50 against MCF-7 cells), 5.5 µM; in the series on TRAMP-C2 cell line (setting [8]), 16 ± 2 µM. Further, the results for the CC50 at 24 h in series [2] (setting [9]) and in series [2] (setting [6]) were 25 µM and 25 ± 8 µM, respectively. In “in vitro”, this compound returned an HC50 at 3 h greater than 100 µM.

As for `NCCCC[C@H](NC(=O)CCCCCCCCCCCNC(=O)[C@H](CCCCN)NC(=O)[C@H](CCCCN)NC(=O)CCCCCCCCCCCNC(=O)[C@@H](N)CCCCN)C(N)=O` [(KNC12K)2NH2] (HELM PEPTIDE1{K.[O=C(CCCCCCCCCCCN[*:1])[*:2]].K.K.[O=C(CCCCCCCCCCCN[*:1])[*:2]].K.[am]}$$$$V2.0), the CC50 in the series with N-417 cell line, with MCF-7 cell line (setting [7]) and with TRAMP-C2 cell line (setting [8]) was greater than 16 µM each time. The CC50 at 24 h in [2] (setting [6]) was greater than 16 µM. In “in vitro”, this compound had an HC50 at 3 h greater than 100 µM.

With `NCCCCCCCCCCCC(=O)N[C@@H](CCCCN)C(=O)NCCCCCCCCCCCC(=O)N[C@@H](CCCCN)C(=O)N[C@@H](CCCCN)C(=O)NCCCCCCCCCCCC(=O)N[C@@H](CCCCN)C(=O)N[C@@H](CCCCN)C(=O)NCCCCCCCCCCCC(=O)N[C@@H](CCCCN)C(N)=O` [NC12(KNC12K)3NH2] (H-[12Ado]K[12Ado]KK[12Ado]KK[12Ado]K-NH2), the figures for the CC50 with N-417 cell line, with MCF-7 cell line (setting [7]) and with TRAMP-C2 cell line (setting [8]) were greater than 16 µM, 7 ± 1 µM and greater than 16 µM, respectively. The CC50 at 24 h in series [2] (setting [6]) was 37 ± 1 µM. Besides, in series [3], the “hemolytic concentration versus cytotoxic concentration against cancer cells” value was “more than one order of magnitude higher”. Also, in the series “in vitro”, the HC50 at 3 h was greater than 100 µM.

Turning to `NCCCCCCCCCCCC(=O)N[C@@H](CCCCN)C(=O)N[C@@H](CCCCN)C(=O)NCCCCCCCCCCCC(=O)N[C@@H](CCCCN)C(=O)N[C@@H](CCCCN)C(=O)NCCCCCCCCCCCC(=O)N[C@@H](CCCCN)C(=O)N[C@@H](CCCCN)C(=O)NCCCCCCCCCCCC(=O)N[C@@H](CCCCN)C(N)=O` (H-[12Ado]KK[12Ado]KK[12Ado]KK[12Ado]K-NH2), the CC50 in the series with N-417 cell line was 10 ± 1 µM; in series [4], roughly 15 µM; in series [1] (1 day exposure (overnight), FIG. 10) it was roughly 15 µM; in [5], 4 µM; in the series on MCF-7 cell line (setting [7]) it was 7 ± 1 µM; in the series with TRAMP-C2 cell line (setting [8]), 15 µM. The CC50 at 24 h in [2] (setting [6]) came to 35 ± 5 µM. Further, in [3], the “hemolytic concentration versus cytotoxic concentration against cancer cells” value is listed as “more than one order of magnitude higher”. This compound registered an HC50 at 3 h in the series “in vitro” greater than 100 µM.

Consider `CCCCCCCCCCCC(=O)N[C@@H](CCCCN)C(=O)N[C@@H](CCCCN)C(=O)NCCCCCCCCCCCC(=O)N[C@@H](CCCCN)C(=O)N[C@@H](CCCCN)C(=O)NCCCCCCCCCCCC(=O)N[C@@H](CCCCN)C(=O)N[C@@H](CCCCN)C(=O)NCCCCCCCCCCCC(=O)N[C@@H](CCCCN)C(N)=O` (Lauroyl-KK[12Ado]KK[12Ado]KK[12Ado]K-NH2), for which the CC50 in the series with N-417 cell line is 17 ± 2 µM; in the series on MCF-7 cell line (setting [7]), 8 ± 1 µM; with TRAMP-C2 cell line (setting [8]), greater than 16 µM. Also, the CC50 at 24 h in series [2] (setting [6]) is 36 ± 6 µM. Moreover, the HC50 at 3 h in the series “in vitro” was found to be 10 ± 1 µM.

For orientation: HC50 means the concentration that lyses half of the red blood cells. The low end stands for more damage to red cells, the high end for less damage to red cells.
